{"source": "patent EP3138569B1", "about": "“COMPOSITION FOR EXTERNAL APPLICATION” (priority 2014, dated 2015)", "key": {"[1]": {"system": "Normal human epidermal fibroblasts", "experiment": "Evaluation of fibroblast-activating effect (MTT, blue formazan)", "assay_type": "cell-based", "conditions": "for activity at 0.313 % / activity at 0.625 % / activity at 1.25 % / activity at 2.5 % / activity at 5 %: Homo sapiens, Fibroblast, 48 h, blue formazan relative to non-treated cells = 100, n=4, read-out: Index (%); for activity at 0.313 %: 0.313 w/v%; for activity at 0.625 %: 0.625 w/v%; for activity at 1.25 %: 1.250 w/v%; for activity at 2.5 %: 2.500 w/v%; for activity at 5 %: 5.000 w/v%; for fibroblast-activating effect: Student's t-test", "description": "Normal human epidermal fibroblasts suspended in a DMEM medium containing a 5% calf serum (FBS) were inoculated in a 96-well plate at a density of 2.0 x 10^4 cells per well. After 24 hours of the inoculation, the medium was exchanged with a 1% calf serum (FBS) -containing DMEM medium (each test solution) which contained trehalulose, isomaltulose, or reduced isomaltulose at the concentrations shown in Table 1 (i.e., each six types of concentrations including 0.000 w/v %). […] Also, 5% FBS-containing DMEM media were used as positive controls (P.C.). After culturing for 48 hours, the medium was exchanged with a 1% FBS-containing DMEM medium which contained 0.4 mg/mL of 3-(4,5-dimethylthiazol-2-yl)-2,5-diphenyltetrazolium bromide (MTT) and cultured for 2 hours. The medium was removed, and when 2-propanol was added, blue formazan generated was extracted. Absorbance of the extract at 550 nm was measured to obtain the amount of blue formazan."}, "tyrosinase": {"target": "T1, tyrosinase (Homo sapiens, UniProt P14679)", "T1 sequence (P14679 19-529)": "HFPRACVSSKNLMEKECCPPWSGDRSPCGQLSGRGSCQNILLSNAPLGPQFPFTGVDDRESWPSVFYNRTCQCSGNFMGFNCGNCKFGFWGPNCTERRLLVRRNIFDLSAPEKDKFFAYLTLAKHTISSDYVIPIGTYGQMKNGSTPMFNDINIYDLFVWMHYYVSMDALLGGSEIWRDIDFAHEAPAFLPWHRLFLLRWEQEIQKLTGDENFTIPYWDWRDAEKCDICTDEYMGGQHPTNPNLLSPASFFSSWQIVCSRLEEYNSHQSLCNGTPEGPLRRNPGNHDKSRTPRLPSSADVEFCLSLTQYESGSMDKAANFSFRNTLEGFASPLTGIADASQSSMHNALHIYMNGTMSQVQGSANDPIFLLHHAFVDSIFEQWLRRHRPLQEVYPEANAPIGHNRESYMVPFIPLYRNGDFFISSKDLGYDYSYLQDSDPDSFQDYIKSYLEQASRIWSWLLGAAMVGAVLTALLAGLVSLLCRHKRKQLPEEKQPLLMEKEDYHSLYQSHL", "conditions": "for Tyrosinase enzyme activity (µg melanin/µg protein/h): 0.5 mM L-DOPA, 37 °C, 2 hours, n=5; for tyrosinase-inhibiting effect: Student's t-test"}, "[2]": {"system": "Normal human epidermal fibroblasts", "experiment": "Evaluation of reducing effect of oxidative stress induced cell damage (UVB 25 mJ/cm^2, Neutral Red)", "assay_type": "cell-based", "description": "(§1) When cells are irradiated with UVB, reactive oxygen species (such as a superoxide anion radical, hydrogen peroxide, and a hydroxyl radical) generate. The viability of cells obtained when the cells were irradiated with UVB was used as index to evaluate the reducing effect of the oxidative stress induced cell damage.\n(§2) Normal human epidermal fibroblasts suspended in a KG2 medium were inoculated in a 96-well plate at a density of 2.0 x 10^4 cells per well. After 24 hours of the inoculation, the medium was exchanged with a KG2 medium (each test solution) which contained trehalulose or reduced isomaltulose at the concentrations shown in Table 2 (i.e., each six types of concentrations including 0.000 w/v %) and cultured for 24 hours. […] Also, groups that were not irradiated with UVB were provided as control groups. After culturing, the medium was exchanged with a KB2 medium containing 33 µg/mL of Neutral Red (NR) and was cultured for 2 hours. After culturing, the cells were washed with PBS, and NR captured within the cells was extracted with a 0.1M HCl solution containing 30% (v/v) ethanol. Absorbance of the extract at 550 nm was measured.\nExcept that the each test solution was changed to a KG2 medium which contained isomaltulose at the concentrations shown in Table 4 (i.e., six types of concentrations including 0.000 w/v %) and that the irradiation intensity of UVB was changed to 25 mJ/cm^2, the reducing effect of the oxidative stress induced cell damage was evaluated according to the same procedure as in Example 2."}, "[3]": {"system": "Normal human epidermal fibroblasts", "experiment": "Evaluation of reducing effect of oxidative stress induced cell damage (UVB 20 mJ/cm^2, Neutral Red)", "assay_type": "cell-based", "description": "as §1, §2"}}, "note": "Read-outs that look alike come from different tables or passages of the source."}
{"smiles": "O=C(CO)[C@@H](O)[C@H](O)[C@H](O)CO[C@H]1O[C@H](CO)[C@@H](O)[C@H](O)[C@H]1O", "note": "[Isomaltulose, 6-O-α-D-glucopyranosyl-D-fructose]", "values": [{"measurement": "activity at 0.313 %", "setting": "[1]", "result": "101 ± 2", "unit": "%"}, {"measurement": "activity at 0.625 %", "setting": "[1]", "result": "107 ± 4.4", "unit": "%"}, {"measurement": "activity at 1.25 %", "setting": "[1]", "result": "111 ± 2.3", "unit": "%"}, {"measurement": "activity at 2.5 %", "setting": "[1]", "result": "113 ± 2.1", "unit": "%"}, {"measurement": "activity at 5 %", "setting": "[1]", "result": 112, "unit": "%"}, {"measurement": "fibroblast-activating effect", "setting": "[1]", "result": "significant fibroblast-activating effect"}, {"measurement": "Tyrosinase enzyme activity (µg melanin/µg protein/h)", "setting": "tyrosinase; 0.094 w/v%", "result": "0.205 ± 0.004", "unit": "µg melanin/µg protein/h"}, {"measurement": "Tyrosinase enzyme activity (µg melanin/µg protein/h)", "setting": "tyrosinase; 0.188 w/v%", "result": "0.208 ± 0.003", "unit": "µg melanin/µg protein/h"}, {"measurement": "Tyrosinase enzyme activity (µg melanin/µg protein/h)", "setting": "tyrosinase; 0.375 w/v%", "result": "0.200 ± 0.006", "unit": "µg melanin/µg protein/h"}, {"measurement": "Tyrosinase enzyme activity (µg melanin/µg protein/h)", "setting": "tyrosinase; 0.750 w/v%", "result": "0.196 ± 0.004", "unit": "µg melanin/µg protein/h"}, {"measurement": "Tyrosinase enzyme activity (µg melanin/µg protein/h)", "setting": "tyrosinase; 1.500 w/v%", "result": "0.190 ± 0.003", "unit": "µg melanin/µg protein/h"}, {"measurement": "Tyrosinase enzyme activity (µg melanin/µg protein/h)", "setting": "tyrosinase; 3.000 w/v%", "result": "0.184 ± 0.004", "unit": "µg melanin/µg protein/h"}, {"measurement": "tyrosinase-inhibiting effect", "setting": "tyrosinase", "result": "significant tyrosinase-inhibiting effect"}, {"measurement": "viability at 0.013 %", "setting": "[2]; Homo sapiens, Fibroblast, light or radiation study, 24 h, 0.013 w/v%, absorbance relative to UVB non-irradiated group = 100, n=4, read-out: Index (%)", "result": "80 ± 1.8", "unit": "%"}, {"measurement": "viability at 0.025 %", "setting": "[2]; Homo sapiens, Fibroblast, light or radiation study, 24 h, 0.025 w/v%, absorbance relative to UVB non-irradiated group = 100, n=4, read-out: Index (%)", "result": "83.7 ± 3.5", "unit": "%"}, {"measurement": "viability at 0.05 %", "setting": "[2]; Homo sapiens, Fibroblast, light or radiation study, 24 h, 0.050 w/v%, absorbance relative to UVB non-irradiated group = 100, n=4, read-out: Index (%)", "result": "84.3 ± 1.1", "unit": "%"}, {"measurement": "viability at 0.1 %", "setting": "[2]; Homo sapiens, Fibroblast, light or radiation study, 24 h, 0.100 w/v%, absorbance relative to UVB non-irradiated group = 100, n=4, read-out: Index (%)", "result": "86.2 ± 2.5", "unit": "%"}, {"measurement": "viability at 0.2 %", "setting": "[2]; Homo sapiens, Fibroblast, light or radiation study, 24 h, 0.200 w/v%, absorbance relative to UVB non-irradiated group = 100, n=4, read-out: Index (%)", "result": "86.8 ± 2.9", "unit": "%"}, {"measurement": "reducing effect of cell damage", "setting": "[2]; Student's t-test", "result": "significant reducing effect of cell damage"}]}
{"smiles": "O=C(CO[C@H]1O[C@H](CO)[C@@H](O)[C@H](O)[C@H]1O)[C@@H](O)[C@H](O)[C@H](O)CO", "note": "[Trehalulose, 1-O-α-D-glucopyranosyl-D-fructose]", "values": [{"measurement": "activity at 0.313 %", "setting": "[1]", "result": "101 ± 2.4", "unit": "%"}, {"measurement": "activity at 0.625 %", "setting": "[1]", "result": "104 ± 2.5", "unit": "%"}, {"measurement": "activity at 1.25 %", "setting": "[1]", "result": "106.9 ± 0.8", "unit": "%"}, {"measurement": "activity at 2.5 %", "setting": "[1]", "result": "112 ± 1.4", "unit": "%"}, {"measurement": "activity at 5 %", "setting": "[1]", "result": "114 ± 5.8", "unit": "%"}, {"measurement": "fibroblast-activating effect", "setting": "[1]", "result": "significant fibroblast-activating effect"}, {"measurement": "Tyrosinase enzyme activity (µg melanin/µg protein/h)", "setting": "tyrosinase; 0.094 w/v%", "result": "0.251 ± 0.034", "unit": "µg melanin/µg protein/h"}, {"measurement": "Tyrosinase enzyme activity (µg melanin/µg protein/h)", "setting": "tyrosinase; 0.188 w/v%", "result": "0.251 ± 0.051", "unit": "µg melanin/µg protein/h"}, {"measurement": "Tyrosinase enzyme activity (µg melanin/µg protein/h)", "setting": "tyrosinase; 0.375 w/v%", "result": "0.244 ± 0.044", "unit": "µg melanin/µg protein/h"}, {"measurement": "Tyrosinase enzyme activity (µg melanin/µg protein/h)", "setting": "tyrosinase; 0.750 w/v%", "result": "0.232 ± 0.028", "unit": "µg melanin/µg protein/h"}, {"measurement": "Tyrosinase enzyme activity (µg melanin/µg protein/h)", "setting": "tyrosinase; 1.500 w/v%", "result": "0.197 ± 0.004", "unit": "µg melanin/µg protein/h"}, {"measurement": "Tyrosinase enzyme activity (µg melanin/µg protein/h)", "setting": "tyrosinase; 3.000 w/v%", "result": "0.188 ± 0.004", "unit": "µg melanin/µg protein/h"}, {"measurement": "tyrosinase-inhibiting effect", "setting": "tyrosinase", "result": "significant tyrosinase-inhibiting effect"}, {"measurement": "viability at 0.125 %", "setting": "[3]; Homo sapiens, Fibroblast, light or radiation study, 24 h, 0.125 w/v%, absorbance relative to UVB non-irradiated group = 100, n=4, read-out: Index (%)", "result": "80.7 ± 2.7", "unit": "%"}, {"measurement": "viability at 0.25 %", "setting": "[3]; Homo sapiens, Fibroblast, light or radiation study, 24 h, 0.250 w/v%, absorbance relative to UVB non-irradiated group = 100, n=4, read-out: Index (%)", "result": "82 ± 4.1", "unit": "%"}, {"measurement": "viability at 0.5 %", "setting": "[3]; Homo sapiens, Fibroblast, light or radiation study, 24 h, 0.500 w/v%, absorbance relative to UVB non-irradiated group = 100, n=4, read-out: Index (%)", "result": "86.5 ± 1.3", "unit": "%"}, {"measurement": "viability at 1 %", "setting": "[3]; Homo sapiens, Fibroblast, light or radiation study, 24 h, 1.000 w/v%, absorbance relative to UVB non-irradiated group = 100, n=4, read-out: Index (%)", "result": "93 ± 0.4", "unit": "%"}, {"measurement": "viability at 2 %", "setting": "[3]; Homo sapiens, Fibroblast, light or radiation study, 24 h, 2.000 w/v%, absorbance relative to UVB non-irradiated group = 100, n=4, read-out: Index (%)", "result": "94.8 ± 1", "unit": "%"}, {"measurement": "reducing effect of cell damage", "setting": "[3]; Student's t-test", "result": "significant reducing effect of cell damage"}]}
